Data as given in article PMC10747661, “Preparation of trans-Crocetin with High Solubility, Stability, and Oral Bioavailability by Incorporation into Three Types of Cyclodextrins” (Pharmaceutics, 2023).
Values after ≈ are worked out from the molar mass of the structure shown. Like-named read-outs stand apart in the source and are kept apart here.

Experiments:
[1] = Effect of storage on stability (heat, light, moisture); type: physicochemical; conditions: 60 ± 0.5 °C, 10 days
Protocol: All samples were sealed in transparent glass bottles and divided into three groups, each containing CRT/α-CD IC (500 mg), CRT/HP-β-CD IC (500 mg), CRT/γ-CD IC (500 mg), and intact CRT (500 mg). The first group was stored at 60 ± 0.5 °C for 10 days. The second group was stored at 25 ± 0.5 °C with a light intensity of 4500 ± 500 lx for 10 days. The third group was stored at 25 ± 0.5 °C with 75% relative humidity for 10 days. The CRT contents were sampled and measured on days 0, 5, and 10. Each test was repeated at least three times.

[2] = Dissolution test (USP paddle method); type: physicochemical; conditions: phosphate buffer pH 6.8, 900 mL, 100 rpm, 37 °C
Protocol: The dissolution of CRT, PMs, and ICs was evaluated using the USP (version 26) paddle method with a dissolution tester (Tianjin University Electronics Co., Ltd., Tianjin, China). The dissolution medium was phosphate buffer (pH 6.8, 900 mL); the paddles were rotated at 100 rpm at 37.0 ± 0.5 °C. A sample volume of 5 mL was withdrawn from the dissolution medium at predetermined sampling points, filtered using a […] microporous filter membrane, and analyzed via HPLC. All dissolution tests were performed in triplicate.

[3] = parameters: method as in PMID 16131146; conditions: mice, oral, cited from earlier work
[4] = parameters: method as in PMID 21112749, PMID 21398065; conditions: humans, CRT or saffron tea orally, cited from earlier work
[5] = Solubility determination; type: physicochemical; conditions: thermodynamic from solid, 25 °C
Protocol: Drug solubility at 25 ± 0.5 °C was determined in water and phosphate buffer (pH 6.8). Excesses of CRT and each IC were added to each fluid and placed in a thermostatic water bath in the dark at 25 ± 0.5 °C with a constant shaking rate of 100 rpm for 72 h. After the equilibrium state was reached, the solutions were centrifuged for 15 min, and 2 mL of the supernatant was diluted with an appropriate amount of methanol. Drug concentrations were determined using HPLC.

[6] = Pharmacokinetics study after intragastric administration; type: in vivo; conditions: Sprague-Dawley, rat, plasma, po, SD rats, 20 mg/kg intragastric, n = 6
Protocol: Twenty-four SD rats were randomly divided into four groups and administered CRT/α-CD IC, CRT/HP-β-CD IC, CRT/γ-CD IC, or intact CRT. All rats were fasted for 12 h and only provided water before experiments. All samples at a dose of 20 mg/kg body weight were administered intragastrically. Blood samples (0.4 mL) were collected from the orbital venous plexus at predetermined time points (0.083, 0.167, 0.25, 0.5, 1, 2, 4, 6, 8, 12, and 24 h) into tubes containing heparin sodium. The blood samples were centrifuged immediately at 4000 rpm for 15 min; the supernatant layer of plasma was separated and stored at 4 °C for 24 h. CRT in plasma was extracted with 600 μL methanol with an internal standard of 10 μL ATRA from 200 μL plasma samples and centrifuged at 10,000 rpm for 15 min at 4 °C. The supernatant layer was transferred to a new tube, concentrated to remove solvents under the LSE-1K vacuum centrifuge concentrator (JTLIANGYOU, Changzhou, China), and redissolved in 200 μL of methanol for analysis. The concentration of CRT was determined using an HPLC (Waters HPLC system consisting of a 2695–2487 UV detector, Milford, MA, USA) using a COSMOSIL-C18 (150 mm × 4.6 mm, 5 μm) column with a detection wavelength of 424 nm. The injection volume was 20 μL, the column temperature was 35 °C, the mobile phase was methanol with water and glacial acetic acid in a ratio (v:v:v) of 92:7.7:0.3, and the flow rate was 1 mL/min. The pharmacokinetic parameters were calculated using DAS 2.0. Relative bioavailability percentage was calculated as follows:Relative bioavailability (%) = (AUC0–∞ IC/AUC0–∞ CRT) × 100 (2)

relative content (retention) of CRT after thermal treatment [1]: 80%
cumulative dissolution rate at 180 min [2]: 13%
solubility at 72 h ([5]; phosphate buffer, pH 6.86, aqueous buffer, buffer salt, read-out: Solubility of CRT in pH6.86 Buffer Salt): 1.84 ± 0.11 µg/mL
solubility at 72 h ([5]; water, read-out: Solubility of CRT in H2O): 1.23 ± 0.07 µg/mL (≈ 3.75 µM)
AUC(0-inf) [6]: 2660 ± 196 ng·h/mL
Cmax [6]: 545 ± 23 ng/mL
Tmax [6]: 2 h
half-life [6]: 2.06 ± 0.237 h
AUC(0-t) ([6]; read-out: AUC0–12): 2410 ± 163 ng·h/mL
MRT last ([6]; read-out: MRT0–12): 3.03 ± 0.082 h
SMILES: CC(/C=C/C=C(\C)C(=O)O)=C\C=C\C=C(C)\C=C\C=C(/C)C(=O)O [CRT, Crocetin]
time of highest plasma concentration ([3]; dose of 117.2 mg/mL): approximately 2 h
highest plasma concentration of CRT [3]: 1249.3 ± 788.1 ng/mL
concentrations of CRT in the blood ([4]; based on the dose): 100.9 to 279.7 ng/mL
Tmax [4]: approximately 4.6 h
